According to the supplement of paper PMC10307832:

What was measured:
FG-4592 + Foretinib = compound: Cc1nc(C(=O)NCC(=O)O)c(O)c2ccc(Oc3ccccc3)cc12 [FG-4592] + COc1cc2c(Oc3ccc(NC(=O)C4(C(=O)Nc5ccc(F)cc5)CC4)cc3F)ccnc2cc1OCCCN1CCOCC1 [Foretinib] (partner 0.25 µM); assay: relative viability (nuclei count vs DMSO), 5 days (fraction); higher = more cells survive
Outline: (§1)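 One day after seeding in 1536-well plates, lung cancer cell lines were dosed by pin tool. Dosing was either single-drug or a fixed anchor-drug dose plus five library-drug doses (not always all listed) in √10 steps. After 5 days, nuclei were stained in one fix-and-stain step and counted on 4× images, and relative viability is the nuclei count of treated wells over that of vehicle wells, given as the median of duplicate plates.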

IU1-47 + Navitoclax = compound: CC1=CC(=C(N1C2=CC=C(C=C2)Cl)C)C(=O)CN3CCCCC3 [IU1-47] + CC1(C)CCC(c2ccc(Cl)cc2)=C(CN2CCN(c3ccc(C(=O)NS(=O)(=O)c4ccc(N[C@H](CCN5CCOCC5)CSc5ccccc5)c(S(=O)(=O)C(F)(F)F)c4)cc3)CC2)C1 [Navitoclax] (partner 0.5 µM); assay: as above
Outline: as §1

Cell Line	relative viability (FG-4592 + Foretinib; first compound 0.08 µM)	relative viability (FG-4592 + Foretinib; first compound 0.253 µM)	relative viability (FG-4592 + Foretinib; first compound 0.8 µM)	relative viability (FG-4592 + Foretinib; first compound 2.53 µM)	relative viability (FG-4592 + Foretinib; first compound 8 µM)	relative viability (IU1-47 + Navitoclax; first compound 0.08 µM)	relative viability (IU1-47 + Navitoclax; first compound 0.253 µM)	relative viability (IU1-47 + Navitoclax; first compound 0.8 µM)	relative viability (IU1-47 + Navitoclax; first compound 2.53 µM)	relative viability (IU1-47 + Navitoclax; first compound 8 µM)
NCI-H2342	1	1.01	1.06	0.959	0.993	–	–	–	–	–
SK-MES-1	1.09	0.724	0.779	0.934	0.836	1.21	1.34	1.27	1.29	1.17
HCC-366	0.926	0.844	0.956	0.994	0.863	1.07	1.09	0.935	–	1.46
201T	1.11	1.04	–	1.15	1.07	1.23	1.2	1.21	–	1.22
HCC-827	1.06	0.899	1.04	1.03	1.06	1.06	1.08	1.01	1.02	0.995
NCI-H647	1.19	1.07	1.18	0.815	0.782	1.31	1.3	1.19	1.26	1.04
NCI-H2023	0.792	0.79	0.885	0.854	0.742	1.02	0.934	1.05	1.02	1.1
NCI-H520	0.497	0.639	0.674	0.868	0.605	1.22	1.12	1.26	1.02	0.981
RERF-LC-KJ	0.853	0.868	0.817	0.888	0.771	0.939	0.812	0.839	1.14	0.879
A-427	0.98	1.11	1.03	0.98	1.18	1.04	0.993	1.04	–	0.926
NCI-H441	0.956	0.896	0.931	0.841	1.01	0.574	0.497	0.655	0.684	0.548
NCI-H1703	–	0.312	0.34	0.321	0.339	1.06	0.961	0.953	1.44	1.15
NCI-H1792	–	–	–	–	–	0.65	0.725	0.76	0.678	0.251
Calu-6	0.907	0.887	0.966	0.924	0.758	1.07	1.01	0.827	0.867	0.802
SK-LU-1	0.866	0.646	0.767	0.881	0.631	0.853	0.855	0.819	0.839	0.847
PC-3 [JPC-3]	1.09	0.937	1.06	1.04	1.02	0.834	0.817	0.804	–	0.788
EMC-BAC-2	0.997	0.995	1.01	1.06	0.977	1.25	1.26	1.21	1.16	1.04
LK-2	1.17	0.95	–	1.19	0.993	1.11	0.956	0.893	0.773	0.546
NCI-H2126	1.14	1.13	1.16	1.09	1.15	0.987	0.823	0.897	0.545	0.809
NCI-H3122	0.957	0.952	0.934	0.993	0.921	1.02	0.966	1.02	1.01	1
NCI-H1975	0.986	0.949	1.07	0.956	0.833	1.25	1.14	1.38	1.18	0.888
NCI-H1944	0.928	0.816	0.941	0.85	0.934	1.1	1.12	1.04	–	1.03
LU99A	0.789	0.791	0.743	0.879	0.808	0.824	0.815	0.974	0.937	0.75
SW 1573	0.913	0.978	0.884	0.987	0.963	1.03	1.14	1.04	0.893	1.09

Cell Line	relative viability (FG-4592 + Foretinib; first compound 0.08 µM)	relative viability (FG-4592 + Foretinib; first compound 0.253 µM)	relative viability (FG-4592 + Foretinib; first compound 0.8 µM)	relative viability (FG-4592 + Foretinib; first compound 2.53 µM)	relative viability (FG-4592 + Foretinib; first compound 8 µM)	relative viability (IU1-47 + Navitoclax; first compound 0.08 µM)	relative viability (IU1-47 + Navitoclax; first compound 0.253 µM)	relative viability (IU1-47 + Navitoclax; first compound 0.8 µM)	relative viability (IU1-47 + Navitoclax; first compound 2.53 µM)	relative viability (IU1-47 + Navitoclax; first compound 8 µM)
NCI-H2347	–	0.618	0.885	0.857	1.04	0.964	0.888	0.912	0.874	0.802
NCI-H2009	1.21	1.11	1.13	1.14	1.11	1.23	1.2	1.16	1.14	1.18
HCC-15	1.03	0.978	1.04	0.93	1.07	0.829	0.721	0.815	0.626	0.589
HCC-44	–	–	–	–	–	1.14	1.01	1	0.908	0.956
COR-L23	0.856	0.832	1.03	0.982	0.991	1.1	1.1	1.21	1.16	1.22
HCC-78	0.556	0.561	0.52	0.541	0.576	0.906	0.866	0.819	0.578	0.747
NCI-H1299	1.12	1.06	1.15	1.07	1.07	1.11	1.13	1.05	1.05	1.03
NCI-H727	0.934	0.617	1.08	0.999	1.11	0.454	–	0.597	0.413	0.391
NCI-H2087	1.19	1.02	1.21	1.07	1.11	1.1	0.922	1.11	0.947	0.99
BEN	0.522	0.597	0.607	0.764	0.464	0.073	0.0735	0.0687	0.0707	0.0719
LCLC-103H	0.716	0.671	0.632	0.799	0.769	–	–	–	–	–
EKVX	0.744	0.804	0.773	0.717	1.04	1.24	1.17	0.965	0.973	0.882
LXF-289	0.97	0.981	0.993	0.974	1.12	0.993	1	0.985	0.92	0.975
ABC-1	0.938	0.929	1.03	1.03	0.76	–	–	–	–	–
NCI-H650	0.997	0.961	0.882	0.991	0.861	–	–	–	–	–
NCI-H1650	1.24	0.903	1.21	1.33	1.04	1.08	1.35	1.08	1.36	0.918
NCI-H2085	0.837	0.696	0.927	0.784	0.881	1.15	1.22	1.13	1.19	1.01
NCI-H1793	0.739	0.71	–	0.593	0.554	0.412	0.358	0.445	–	0.424
LC-2-ad	0.88	0.838	–	0.789	0.877	0.429	0.548	0.524	0.443	0.382
COR-L 105	0.817	1.06	1.2	0.96	0.718	0.896	0.809	0.865	0.81	0.68
NCI-H1355	0.987	0.678	0.93	1.02	0.971	0.946	0.943	0.977	0.898	0.848
H3255	0.848	0.752	0.881	0.903	0.947	0.557	0.602	0.489	0.511	0.446
NCI-H1993	0.783	0.582	0.781	0.828	0.747	0.876	0.938	0.893	0.979	0.895
NCI-H1734	0.792	0.812	0.806	0.884	0.75	0.943	0.873	0.823	–	0.734

Cell Line	relative viability (FG-4592 + Foretinib; first compound 0.08 µM)	relative viability (FG-4592 + Foretinib; first compound 0.253 µM)	relative viability (FG-4592 + Foretinib; first compound 0.8 µM)	relative viability (FG-4592 + Foretinib; first compound 2.53 µM)	relative viability (FG-4592 + Foretinib; first compound 8 µM)	relative viability (IU1-47 + Navitoclax; first compound 0.08 µM)	relative viability (IU1-47 + Navitoclax; first compound 0.253 µM)	relative viability (IU1-47 + Navitoclax; first compound 0.8 µM)	relative viability (IU1-47 + Navitoclax; first compound 2.53 µM)	relative viability (IU1-47 + Navitoclax; first compound 8 µM)
HOP-62	1.13	1.03	1.12	1.05	0.986	1.05	0.962	1.12	0.897	1.21
LOU-NH91	0.971	0.879	0.917	0.868	0.91	0.772	0.687	0.638	0.609	0.652
ChaGo-K-1	0.997	0.834	0.919	0.973	0.897	1.15	1.15	0.895	0.889	0.625
NCI-H2228	0.672	0.744	0.945	0.854	0.717	0.871	0.97	1.69	0.659	0.832
PC-14	1.09	0.997	1	0.965	0.987	1.22	1.14	1.16	1.06	0.932
NCI-H1437	1.24	1.19	1.29	1.3	1.04	1.15	1.08	1.1	0.982	0.955
NCI-H460	0.986	1.04	1.04	1.03	1.03	1.3	1.08	1.36	1.02	1.38
NCI-H1666	0.907	0.865	0.939	0.963	0.837	1.1	1.04	0.89	0.912	0.824
NCI-H1651	0.863	0.773	0.88	0.901	0.839	1.25	1.13	1.16	–	1.12
NCI-H1755	0.907	0.905	0.857	0.929	0.921	1.15	1.05	1.06	1.07	1.01
NCI-H661	1.06	0.956	1.09	0.987	0.938	–	–	–	–	–
HARA	0.834	0.87	0.896	0.885	0.878	1.16	1.19	1.19	1.2	0.998
NCI-H596	0.814	0.617	0.764	0.867	0.465	1.05	0.961	0.982	0.869	1.05
NCI-H1563	0.995	0.961	0.866	1.01	0.82	–	–	–	–	–
NCI-H23	1.01	0.856	0.973	0.999	0.966	0.791	0.903	0.987	0.925	0.716
A549	1.01	0.898	1.03	0.991	0.866	1.23	1.27	1.21	1.26	1.1
LCLC-97TM1	0.9	0.901	0.876	0.887	0.866	0.526	0.502	0.517	–	0.404
EPLC-272H	0.755	0.738	0.521	0.706	0.641	1.19	1.07	1.07	–	1.12
NCI-H1915	1.09	1.06	1.22	1.12	1	0.822	0.805	0.828	–	0.833
NCI-H2405	0.962	–	1.03	1.02	1.14	1.02	0.902	0.862	–	0.897
NCI-H322M	0.87	0.937	0.903	0.975	0.91	1.31	1.21	1.1	1.27	1.23
NCI-H1623	0.825	0.846	0.795	0.731	0.724	–	–	–	–	–
SW 900	0.823	0.947	1.08	1.17	0.833	–	–	–	–	–
NCI-H358	0.732	0.632	0.85	0.535	0.632	–	–	–	–	–
